Data set [1] can be described thus: Solubility of cholecalciferol and cholecalciferol phosphate (disodium, acid). Type of data set: physicochemical. As to the method: Aliquots of cholecalciferol, cholecalciferol phosphate disodium, and cholecalciferol phosphate acid were added to a range of solvents including propylene glycol (PG), distilled water, methanol, ethyl acetate, ethanol, n-hexane, and the visual solubility was determined. A precise assessment of the saturation solubility was for some of the solvent systems was made using high-performance liquid chromatography (HPLC). In the HPLC solubility studies, an excess of each solute was added into 2 mL of each test solvent. The solutions were left stirring overnight at room temperature, (RT), 22° C. The saturation of the solutions was confirmed by the visual appearance of crystals and the drug suspensions were filtered through 0.2 μm cellulose acetate syringe filters, diluted with excess of mobile phase, and the solute concentration of each sample was assessed using HPLC.

Data set [2] can be described thus: Release of cholecalciferol phosphate disodium solutions through synthetic membrane. Type of data set: in vitro ADME. The procedure:
Preliminary studies were conducted to determine the best synthetic membrane for the patch release using the Franz diffusion cells. Regenerated cellulose (12-14 k molecular weight cut-off Medicell International UK) was compared to nylon (0.20 μm, Whatman, UK) using a range of donor and receiver solutions. The regenerated cellulose membrane was heated to 60° C. for 30 minutes after which the double layer of polymer (it is supplied as a dialysis membrane) was separated and mounted onto the Franz cell (FIG. 3) by sealing between the two compartments using parafilm, and 12 mm magnetic stirrers were placed into the receiver compartment. The receiver compartment was filled with either 50:50 PG:mobile phase (90:10 methanol:water pH 3.2), or 80:20 PG:distilled water, or 75 mM pH 7 saline. The cell sealing was confirmed by cell inversion and monitoring solvent back diffusion. […] The temperature of the Franz diffusion was maintained at 37° C. in a water bath, to set up the membrane temperature to 32° C. […] The 1 ml receiver fluid samples were collected and analysed by HPLC methods at different time intervals. […]

A short description of data set [3]: Franz cell porcine skin permeation and deposition of cholecalciferol and cholecalciferol phosphate disodium from PG solutions. Type of data set: in vitro ADME. As to the method: In order to assess the effect of adding phosphate to vitamin D chemical structure on the penetration of vitamin D through the skin porcine skin permeation studies were performed. Using the data from the pre-formulation studies solutions of cholecalciferol and cholecalciferol phosphate disodium, were prepared. […] The developed HPLC methods were used for quantification.
To study if the addition of the phosphate to cholecalciferol facilitated enhanced transdermal permeation, donor solutions were prepared by adding 2.5 mg/mL of cholecalciferol or cholecalciferol phosphate disodium in 100% PG. […] After 24 h, the receiver fluid was collected and analysed by HPLC methods. […]
Following homogenising solution with epidermis and dermis for 1 min by Ultra Turrax, solutions were filtered through 0.2 μm syringe filters of each bottle was collected and analysed by the HPLC method. The amount of cholecalciferol and cholecalciferol phosphate disodium on the surface of the skin, deposited in the SC, epidermis, dermis, and passed into the receiver fluid was determined. The percentage of mass recovery per cm^2 of skin was calculated, and the drug deposition profile could be obtained.

Data set [4] in a line: Cholecalciferol phosphate adhesive suitability / compatibility screen. The data set is classed as physicochemical. As to the method:
Pre-formulation studies were performed to determine the compatibility of cholecalciferol phosphate (disodium and acid forms) with a range of adhesives (Table 38) that could be used to manufacture of the patch. The compatibility of the drugs with the patch excipients was assessed through checking the clarity of the mixture.
The compatibility of the adhesive with solvents and drug was established. The maximum drug loading in the adhesive following solvent evaporation was determined by mixing the drug, adhesive and co-solvents until a clear solution is obtained at different drug:adhesive ratios by placing a drop of solution onto patch backing sheet, leaving the slide to dry for 3-4 hours and examining the formed fil on the surface of the backings for evidence of drug crystals were assessed using KKmoon digital magnifier with LED light (China). Following patch optimization, the drug-adhesive solution was cast as 10×10 cm squares using of backing (3M™ Scotchpak™ Polyester Backing Film Laminate 9730). A sufficient volume of the adhesive was applied to achieve a target coating of 8 mg/cm^2. Following complete drying of the solvents, the adhesive layer was covered by M3 Release liner (SCOTCHPAK 9755), compressed, and then cut using 34 mm circular manual die cutter (SCP Super Cutting Press).

As to cholecalciferol phosphate disodium, the Solubility (usually the dissolved amount per volume that the medium holds) in data set [1] (solvent PG) is 2670 ± 310 µg/mL; in data set [1] (solvent PG + 5% ethanol), 340 ± 610 µg/mL; in data set [4] (DURO-TAK 87-2516 93.2 μL, 10% w/v drug, 1.4 mL methanol, 2.75 mL ethyl acetate, 2 μL PG, 150 μL water), “Clear”; in data set [4] (DURO-TAK 87-2516 100 μL, 10% w/v drug, 0.5 mL methanol, 0.5-1.5 mL ethyl acetate, 2 μL PG, no water), “Not clear”; in data set [4] (DURO-TAK 87-2516 180 μL, 5% drug, 1.4 mL methanol, 2.5 mL ethyl acetate, 4 μL PG, 150 μL water), “Clear”; in data set [4] (DURO-TAK 87-2516 200 μL, 3% drug, 0.9 mL methanol, 2 mL ethyl acetate, 40 μL PG, 100 μL water), “Clear”. Moreover, the Solubility result in data set [4] (DURO-TAK 87-9301 suitability screen, 4 mg drug, 0.2 mL adhesive, 1-4 mL ethyl acetate, 60 μL PG) is on record as “Opaque”; in data set [4] (DURO-TAK 87-9301 suitability screen, 4 mg drug, no adhesive, 4 mL methanol, 40 μL PG) it was “Clear”. The “release through regenerated cellulose membrane” value in data set [2] (PG donor, 50:50 PG:MP (90:10 methanol:water pH 3.2) receiver) is 22.0±4.6%; in data set [2] (saline donor, saline receiver) it was 3.0±0.7%. The “deposition compared with cholecalciferol in each skin layer” value in data set [3] (p<0.05, ANOVA) is listed as “significantly higher”. Further, the “vitamin D delivered into the skin compared to cholecalciferol” value in data set [3] (propylene glycol solution) turned out to be 5 times. Moreover, the “compatibility with DURO-TAK 87-2516” value in data set [4] was “compatible”. In data set [4], the “compatibility with DURO-TAK 87-9301” value is on record as “did not show compatibility”. Moreover, the “miscibility with Oppanol B12 and Oppanol N100” value in data set [4] is “did not show acceptable miscibility”. Also, the “highest active loading without any crystallization” value in data set [4] (DURO-TAK 87-2516) was 0.6 mg/mL.

The values are drawn from patent US20260306421A1, “SYSTEMS AND METHODS FOR TRANSDERMAN PATCH DELIVERY” (VITAMAX PATCH WHOLESALER LLC, priority 2022, published 2026).
